The text below walks through data of patent US10995357B2, “Rapid antimicrobial susceptibility testing based on a unique spectral intensity ratio analysis via single fluorescence membrane dye staining and flow cytometry” (POCARED Diagnostics LTD., priority 2017, dated 2021).

Broadly, the MIC is the smallest concentration in the dilution series that meets the test's criterion for growth inhibition.

Common to all, as to type: cell-based
Experiment [1] relates to 30 clinical isolates of E. coli, K. pneumoniae, E. cloacae, P. mirabilis, and C. freundii. Briefly: Reference macro dilution method, visual growth after 16-20 hours, clinical isolates. To be noted: for Reference Method Susceptibilities I: number of strains intermediate out of 30 clinical isolates; for Reference Method Susceptibilities R: number of strains resistant out of 30 clinical isolates; for Reference Method Susceptibilities S: number of strains susceptible out of 30 clinical isolates. The method, then: A total of 90 isolates-antibiotics combinations were tested. • a) All strains were cultured onto 5% sheep blood agar (Hylabs, Israel), following overnight incubation, colonies were harvested and suspended in Phosphate Buffer Saline (PBS, Sigma-Aldrich). […] 1 ml was discarded from the last tube in each set of tubes. • g) For each serial dilutions set, two controls were added. As a negative control, a tube with 2 ml of CAMHB. […] The rest of the sample was further incubated for 16-20 hours and then was visually evaluated for growth.

The next experiment deals with K. pneumonia. Briefly: Rapid AST/MIC by spectral intensity ratio (SIR), FM 1-43 staining and flow cytometry, directly from positive blood culture. Conditions: 2-4 hours antibiotic exposure, SIR step function fit. The method, then: (§1) In general, the method includes; blood culture centrifugation, bacterial antimicrobial exposure for 2 to 4 hours, bacteria staining with a single fluorescence dye followed by a flow cytometric measurement, and mathematical analysis.
(§2) 31 positive blood cultures were obtained from Sheba Medical Center (Ramat-Gan, Israel) and tested for antimicrobial susceptibility with gentamicin and ampicillin antibiotics (Sigma-Aldrich, USA). A total of 62 positive blood samples-antibiotics combinations were tested. • a) Positive blood samples were received from Sheba Medical Center, 2 ml of each sample were centrifuged for 15 min at 24×g and Supernatants were diluted 1:1000 with Cation-Adjusted Mueller Hinton Broth (CAMHB). • b) Antimicrobial stock solutions were prepared according to CLSI recommendations, and were diluted in CAMHB, to a concentration which was 2 fold higher from the highest concentration recommended for each antimicrobial combination (“Class II Special Controls Guidance Document: Antimicrobial Susceptibility Test (AST) Systems”, Aug. […] As a positive control, a tube with bacterial sample solution (a) without antimicrobial agent. • h) All tubes were incubated at 37° C. • i) 2-4 hours from incubation initiation, 200 μl from each tube were transferred into a fresh tube, dyed with 2 μl of Synaptogreen or FM 1-43 (Sigma-Aldrich; Molecular Probes, respectively) and measured by a flow cytometer. The rest of the sample was further incubated for 16-20 hours and then was visually evaluated for growth.
(§3) In order to quantify the influence of a certain antimicrobial exposure we define the spectral intensity ratio (SIR) as follows: […]
(§4) The MIC is calculated by plotting the spectral intensity ratio (SIR) as a function of the antimicrobial concentration and approximating it to a step function in the form of […]
On the technique in general: Flow cytometry measures light scatter and fluorescence of single cells or particles in a stream.

The test system of experiment [2] is E. coli. Described as above. To be noted: E. coli strain from positive blood culture; scatter plot unchanged at high antibiotic concentrations. The method, then:
as §1, §2, §3, §4

The subject of experiment [3] is 31 positive blood cultures (E. coli, K. pneumonia, A. baummanii, P. mirabilis, E. cloacae, Aeromonass spp., K. oxytoca). Briefly: Reference macro dilution method, visual growth after 16-20 hours, positive blood cultures. Conditions: for Reference Method Susceptibilities I: number of strains intermediate out of 31 positive blood cultures; for Reference Method Susceptibilities R: number of strains resistant out of 31 positive blood cultures; for Reference Method Susceptibilities S: number of strains susceptible out of 31 positive blood cultures. The method, then:
31 positive blood cultures were obtained from Sheba Medical Center (Ramat-Gan, Israel) and tested for antimicrobial susceptibility with gentamicin and ampicillin antibiotics (Sigma-Aldrich, USA). A total of 62 positive blood samples-antibiotics combinations were tested. • a) Positive blood samples were received from Sheba Medical Center, 2 ml of each sample were centrifuged for 15 min at 24×g and Supernatants were diluted 1:1000 with Cation-Adjusted Mueller Hinton Broth (CAMHB). • b) Antimicrobial stock solutions were prepared according to CLSI recommendations, and were diluted in CAMHB, to a concentration which was 2 fold higher from the highest concentration recommended for each antimicrobial combination (“Class II Special Controls Guidance Document: Antimicrobial Susceptibility Test (AST) Systems”, Aug. 28, 2009, FDA). • c) For each sample/antimicrobial combination, a set of tubes was prepared for which 1 ml of CAMHB medium was added, except for the first tube. • d) To each first tube of the set, 2 ml from the antimicrobial stock solution (b) was dispensed. • e) From the first tube a serial dilutions of 2 folds were prepared by transferring 1 ml of the solution to the next tube until the lowest required concentration by CLSI. 1 ml was discarded from the last tube in each set of tubes. • f) To each tube in the set, 1 ml of bacterial sample solution (a) was added. • g) For each serial dilutions set, two controls were added. As a negative control, a tube with 2 ml of CAMHB. As a positive control, a tube with bacterial sample solution (a) without antimicrobial agent. • h) All tubes were incubated at 37° C. • i) 2-4 hours from incubation initiation, 200 μl from each tube were transferred into a fresh tube, dyed with 2 μl of Synaptogreen or FM 1-43 (Sigma-Aldrich; Molecular Probes, respectively) and measured by a flow cytometer. The rest of the sample was further incubated for 16-20 hours and then was visually evaluated for growth.
62 samples (31 positive blood cultures and 2 antibiotics combination) were analyzed in triplicates. Each sample was measured by the flow cytometer and the MIC was calculated using the spectral intensity ratio (SIR) calculation and step function estimation. The bacteria identified within the samples were; E. coli (15 samples), K. pneumonia (6 samples), A. baummanii (4 samples), P. mirabilis (2 samples), E. cloacae (2 samples), Aeromonass spp. (1 sample), and K. oxytoca (1 sample).
Tables 1 and 2 present the results of the positive blood sample experiment using the macro dilution as the reference method. […] There are no errors as defined by “Class II Special Controls Guidance Document: Antimicrobial Susceptibility Test (AST) Systems,” Aug. 28, 2009, FDA.

The next experiment deals with C. freundii. Briefly: Rapid AST/MIC by spectral intensity ratio (SIR), FM 1-43 staining and flow cytometry, from clinical isolates. Conditions: C. freundii clinical isolate; up to 32 μg/ml; SIR almost constant. The method, then:
(§5) Our method includes bacterial antimicrobial treatment for 2 to 4 hours, bacteria staining with a single fluorescence dye followed by a flow cytometric measurement, and mathematical analysis. The following paragraphs describe the method in details.
(§6) A total of 90 isolates-antibiotics combinations were tested. • a) All strains were cultured onto 5% sheep blood agar (Hylabs, Israel), following overnight incubation, colonies were harvested and suspended in Phosphate Buffer Saline (PBS, Sigma-Aldrich). […] The rest of the sample was further incubated for 16-20 hours and then was visually evaluated for growth.
(§7) In order to quantify the influence of a certain antimicrobial treatment, we define the spectral intensity ratio (SIR) as follows: […]
(§8) The MIC is calculated by plotting the spectral intensity ratio (SIR) as a function of the antimicrobial concentration and approximating it to a step function in the form of
(§9) Where a, b, and c are parameters and erf is the error function. The parameters are used to approximate the measured SIR to a step function; a is a scaling parameter, b determines the step slope, and c is the MIC value. […]

The test system of experiment [4] is E. coli. Described as above. To be noted: E. coli clinical isolate; 2-4 hours antibiotic exposure; SIR step function fit. The procedure: as §5, §6, §7, §8, §9

Like-named read-outs stand apart in the source and are kept apart here.

`CC1(C)S[C@@H]2[C@H](NC(=O)[C@H](N)c3ccccc3)C(=O)N2[C@H]1C(=O)O` [Ampicillin, ampicillin]: in experiment [1], the “Reference Method Susceptibilities I” value came to 5, the “Reference Method Susceptibilities R” value came to 9 and the “Reference Method Susceptibilities S” value worked out at 16. Also, the minimal inhibitory concentration (MIC) in the experiment on K. pneumonia (Klebsiella pneumoniae, read-out: MIC) was 4 µg/mL. The “Susceptibility (SIR as a function of antibiotic concentration)” value in the experiment on E. coli [2] is given as “resistant”. Further, in experiment [3], the “Reference Method Susceptibilities I” value is 0, the “Reference Method Susceptibilities R” value turned out to be 26 and the “Reference Method Susceptibilities S” value was 5.

With gentamicin, the “Reference Method Susceptibilities I” value turned out to be 4 in experiment [1] and 0 in experiment [3]. Also, the “Reference Method Susceptibilities R” value in experiment [1] amounted to 5; in experiment [3], 10. Also, the “Reference Method Susceptibilities S” value in experiment [1] and in experiment [3] was 21 throughout. In addition, the MIC stood at 1 µg/mL in the experiment with K. pneumonia and 2 µg/mL in the experiment with E. coli [4]. Further, the “Susceptibility (SIR as a function of antibiotic concentration)” value in the experiment with C. freundii is given as “resistant”.
